Legend:
Plasmodium falciparum [1] = assay: NOVARTIS: Inhibition of Plasmodium falciparum 3D7 (drug-susceptible) proliferation in erythrocyte-based infection assay; type: functional, organism-based; conditions: Plasmodium falciparum, 3D7
Plasmodium falciparum [2] = assay: NOVARTIS: Inhibition of Plasmodium falciparum W2 (drug-resistant) proliferation in erythrocyte-based infection assay; type: functional, organism-based; conditions: Plasmodium falciparum, W2; read-out: EC50
[3] = NOVARTIS: Cytotoxicity against human hepatocellular carcinoma cell line (Huh7); type: toxicity, cell-based, Huh-7; conditions: Huh7 cells (hepatocellular carcinoma cell line)

Structure (SMILES)	EC50 (Plasmodium falciparum [1])	EC50 (Plasmodium falciparum [2])	CC50 [3]
O=C1/C(=N\c2cccc(O)c2)C(N2CCCCC2)=C(O)c2ccccc21	212 nM	227 nM	> 100000 nM
CN(C)c1ccc2c(c1)Sc1cc(N(C)C)ccc1N2C(=O)c1ccccc1	218 nM	232 nM	> 100000 nM
CC(=O)OCC(=O)[C@@]1(O)CCC2C3CCC4=CC(=O)CC[C@]4(C)C3[C@@H](O)C[C@@]21C (stereo not given in full)	> 1250 nM	< 23 nM	> 10000 nM
Cc1nn(CC(O)Cn2c3ccc(Br)cc3c3cc(Br)ccc32)c(C)c1Br (stereo not given)	769 nM	177 nM	75200 nM
CS(=O)(=O)N1CCCCC1C(=O)NCc1ccc(OC2CCN(CC(c3ccccc3)c3ccccc3)CC2)cc1 (stereo not given)	1020 nM	22.9 nM	> 10000 nM
c1ccc2cc3c(N4CCN(CCN5CCN(c6ccnc7cc8ccccc8cc67)CC5)CC4)ccnc3cc2c1	176 nM	228 nM	> 100000 nM
CN(C)c1cc[n+](CC(=O)c2ccc(Br)cc2)cc1	211 nM	183 nM	75600 nM
CSc1ccc(C=CC(=O)NC(=O)c2ccccc2O)cc1	243 nM	225 nM	> 100000 nM
Clc1ccc(-c2c[n+](-c3ccccc3)c3n2CCS3)cc1	308 nM	236 nM	> 100000 nM
Cc1ccc(NC(=O)N(CCCN(C)C)Cc2cc3cc4c(cc3[nH]c2=O)OCO4)cc1	1300 nM	236 nM	> 100000 nM
Cc1cc(NCCc2ccccc2)nc2cc(O)ccc12	377 nM	69.5 nM	29500 nM
CCc1c(C)c(C#N)c2nc3ccccc3n2c1Nc1ccc(C)c(Cl)c1	1090 nM	233 nM	> 100000 nM
CC(=O)c1ccc(N2CCN(Cc3cc(-c4ccnc5cc(Cl)ccc45)ccc3O)CC2)cc1	2810 nM	228 nM	> 100000 nM
CCc1cc2c3c(c1)C1(C(=O)N3C(C)(C)CC2C)C(C#N)=C(N)Oc2cc(C)oc(=O)c21 (stereo not given)	1470 nM	228 nM	> 100000 nM
C=CCSc1nc2sc3c(c2c(=O)n1-c1ccccc1)CCN(C)C3	632 nM	228 nM	> 100000 nM
O=C(c1cc2cc(Br)ccc2o1)N1CCc2c([nH]c3ccccc23)C1c1ccc(Cl)cc1 (stereo not given)	887 nM	226 nM	> 100000 nM
CCOC(=O)C1=C(C)NC2=C(C(=O)C(C(=O)OCC)C(c3ccc(OC)cc3)C2)C1c1ccc(OC)c(OC)c1 (stereo not given)	275 nM	178 nM	> 76600 nM
CC1CN(C(=O)c2sc3cccc(F)c3c2Cl)CC(C)O1 (stereo not given)	299 nM	232 nM	> 100000 nM
CN1CCN(c2ccc(Nc3ccnc4cc(Cl)ccc34)cc2Cl)CC1	35.8 nM	54.7 nM	> 23700 nM
Cc1ccc(S(=O)(=O)NCCCCNc2ccnc3cc(Cl)ccc23)cc1	575 nM	< 20.4 nM	> 9020 nM
OCC1CCCCN1Cc1cc(-c2ccccc2)ccc1O (stereo not given)	1030 nM	< 23.2 nM	> 10000 nM
COc1ccc(OC)c(-c2ccc(O)c(CNCCc3ccc(F)cc3)c2)c1	1050 nM	< 23.2 nM	> 10000 nM
C[n+]1ccccc1C=Cc1ccc(Br)cc1	352 nM	221 nM	95200 nM
c1cncc(CCNc2nccn3c(-c4ccc5ccccc5c4)cnc23)c1	115 nM	81.2 nM	34400 nM
CCOC(=O)c1nnn(-c2nonc2N)c1-c1ccc(Br)cc1	287 nM	230 nM	> 100000 nM
CCOc1ccccc1-n1c(N)c(C(=O)Nc2ccc(F)cc2)sc1=S	968 nM	230 nM	> 100000 nM
CC(=O)c1c(C)n(CC(=O)Nc2cccc(C)c2)c2ccccc12	329 nM	248 nM	> 100000 nM
CCOc1ccc(NC(=O)c2ccc(F)c(S(=O)(=O)NC3CCCCCC3)c2)cc1	1350 nM	135 nM	54800 nM

Structure (SMILES)	EC50 (Plasmodium falciparum [1])	EC50 (Plasmodium falciparum [2])	CC50 [3]
Oc1ccc(-c2ccnc3cc(Cl)ccc23)cc1CNC1CN2CCC1CC2 (stereo not given)	986 nM	< 24.1 nM	> 10000 nM
CCCCC(=O)NC(c1ccccc1)c1ccc2cccnc2c1O (stereo not given)	387 nM	239 nM	> 100000 nM
CCc1c(C)c(C#N)c2nc3ccccc3n2c1NCc1ccccc1	787 nM	238 nM	> 100000 nM
O=[N+]([O-])c1cc(C(F)(F)F)ccc1N1CCCN(C(=S)Nc2cccc(C(F)(F)F)c2)CC1	149 nM	130 nM	55000 nM
CCCCCCn1c(=O)c(C(=O)NCC[N+](CC)(CC)CC)c(O)c2ccccc21	506 nM	236 nM	> 100000 nM
CCOC(=O)C1=C(C)NC2=C(C(=O)C(C(=O)OCC)C(c3ccccc3OC)C2)C1c1sccc1C (stereo not given)	984 nM	235 nM	> 100000 nM
Oc1ccc(-c2ccccc2)cc1CNC1CCCCC1	982 nM	< 23.5 nM	> 10000 nM
CC(C)C(=O)N1CCOc2c(cc(-c3csc4ccccc34)cc2OCCc2ccccn2)C1	183 nM	125 nM	50600 nM
O=[N+]([O-])c1cccc2c1nnn2C12CC3CC(CC(O)(C3)C1)C2	536 nM	245 nM	> 100000 nM
Nc1noc2cccc(OC3CCNCC3)c12	1030 nM	< 24.5 nM	> 10000 nM
CCN1C=CC(=Cc2ccc3cc(C)ccc3[n+]2C)C=C1	170 nM	140 nM	> 58000 nM
N#Cc1ccc(CNC(=S)Nc2cc(Cl)ccc2Cl)cc1	421 nM	238 nM	> 100000 nM
CCOc1ccc(-c2c[n+](-c3ccccc3)c3n2CCS3)cc1	421 nM	228 nM	> 100000 nM
Cc1onc(-c2ccccc2)c1C(=O)N1CCC(CNc2c(-c3ccoc3)nc3ccccn23)CC1	1760 nM	225 nM	96600 nM
OCc1nc2ccccc2n1CCOc1ccccc1	> 1250 nM	23.3 nM	> 10000 nM
COc1cc(C2CC(=O)NC(C)=C2C(=O)OC(C)C)c(OC)cc1Br (stereo not given)	1030 nM	242 nM	> 100000 nM
COc1ccc(-n2c(COc3cccc4ccccc34)nnc2SC)cc1	524 nM	236 nM	> 100000 nM
Cc1nc2c(c(C)nn2C)c(C)c1CCC(=O)N1CCCC1	360 nM	< 15.8 nM	> 6850 nM
CCSc1ccc2ccccc2[n+]1CC	179 nM	227 nM	> 100000 nM
N#Cc1c2c(c(N3CCN(Cc4ccccc4)CC3)n3c1nc1ccccc13)CCC2	311 nM	248 nM	> 100000 nM
CCOC(=O)C1=C(C)NC2=C(C(=O)C(C(=O)OCC)C(c3ccccc3OC)C2)C1c1cccs1 (stereo not given)	1830 nM	241 nM	> 100000 nM
Oc1ccc(-c2cccnc2)cc1CNCC1CC2C=CC1C21CC1 (stereo not given)	835 nM	< 23.3 nM	> 10000 nM
COC(=O)CC(NS(=O)(=O)c1ccc(OC)cc1)c1ccc2c(c1)OCO2 (stereo not given)	1460 nM	< 23.4 nM	> 10300 nM
Oc1ccc(-c2ccc3c(c2)OCO3)cc1CNC12CC3CC(CC(C3)C1)C2	832 nM	225 nM	> 100000 nM
Cc1nc(N(C)c2ccc(C(C)C)cc2)c2c(C)c(C(=O)Nc3cc(C)on3)sc2n1	248 nM	236 nM	> 100000 nM
Cc1ccn2c(NC(C)(C)CC(C)(C)C)c(-c3ccccc3OC(=O)c3ccc4c(c3)OCO4)nc2c1	831 nM	24.1 nM	> 10000 nM
c1ccc2c(c1)[nH]c1ccc3ccncc3c12	85.3 nM	24.2 nM	> 10000 nM
